The structures appear in SMILES notation. Converted amounts (≈) assume the structure as drawn. “Also recorded” adds a separate entry of the source. A value given as a limit tells only on which side of the number the result lay.

Usually IC50 stands for the concentration that gives 50% inhibition. Read a high IC50 as weaker potency.

For one experiment, the system named is HL-60 cells. The experiment can be described thus: cell growth inhibition, HL-60 promyelocytic leukemia. In kind it is cell-based. The conditions noted are these: Homo sapiens, HL-60, 72 h; 3 days, Trypan Blue viable cell count. As for the experimental part: (§1) The source of the cancer cell lines were: HL-60, HT-29, and BT-20, from American Type Culture Collection, Rockville, Maryland; A-1 from Dr. M. H. Freedman, MG-63, from Dr. M. Hurley, and human fibroblast from Dr. R. Zeff. Cells were grown in the culture treated with or without various compounds for 3 days. Cells (except BT-20) were then recovered and treated with Trypan Blue and the number of viable cells counted. For BT-20 cells, a new rapid and simple method using Alamar Blue Assay was used, as described by S. A. Ahmed et al., J. Immunol. Meth., 170, 211 (1994). The symbol i on the Table indicates "not
(§2) As shown on Table 3, several compounds of formula (I) were tested for their ability to inhibit the growth of human cancer cells including promyelocytic leukemia HL-60 cells (S. J. Collins et al., Blood, 70, 1233 (1987)); acute lymphocytic leukemia A-1 cells, (S. Kamel-Reid et al., Leukemia, 6, 8 (1992)); human osteosarcoma MG-63, (A. Pirskanen et al., J. Bone and Mineral Res., 1635 (1994)); human breast carcinoma BT-20 (G. G. Castles et al., Cancer Res., 58, 5934 (1992)); and human colon adenocarcinoma HT-29 cells (R. Garcia et al., Oncogene, 6, 1983 (1991)).

The next experiment deals with T1, p60^c-src (Homo sapiens, UniProt P12931).
T1 construct: purchased Upstate Biotechnology Inc
T1 sequence (P12931 whole entry): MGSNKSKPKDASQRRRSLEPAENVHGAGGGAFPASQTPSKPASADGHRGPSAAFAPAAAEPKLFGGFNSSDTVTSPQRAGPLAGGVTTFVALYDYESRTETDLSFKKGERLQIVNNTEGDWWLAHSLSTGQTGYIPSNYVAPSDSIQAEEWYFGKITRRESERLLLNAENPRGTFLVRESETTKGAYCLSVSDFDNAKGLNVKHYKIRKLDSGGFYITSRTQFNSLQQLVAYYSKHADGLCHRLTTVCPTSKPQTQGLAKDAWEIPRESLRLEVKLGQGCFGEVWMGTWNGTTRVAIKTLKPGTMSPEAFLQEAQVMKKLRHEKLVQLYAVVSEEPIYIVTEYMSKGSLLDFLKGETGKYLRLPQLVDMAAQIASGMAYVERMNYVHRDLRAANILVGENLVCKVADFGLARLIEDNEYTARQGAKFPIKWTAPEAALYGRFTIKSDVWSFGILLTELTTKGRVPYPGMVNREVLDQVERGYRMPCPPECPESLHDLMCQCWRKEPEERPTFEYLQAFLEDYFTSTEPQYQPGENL
As to the kind of experiment: kinase assay, purified p60c-src, poly [Glu,Tyr](4:1) substrate. The conditions noted are these: for IC50, p60^c-src: purified kinase, poly [Glu,Tyr](4:1) substrate. It is filed as biochemical. As for the experimental part: (§3) Purified p60^c-scr and Src-family kinases p56^lck, p56^lyn, and p55^fyn were obtained from Upstate Biotechnology Inc. Kinase assays were performed as described by A. Gezit, J. Med.

For the next experiment, the system named is BT-20. The experiment can be described thus: cell growth inhibition, BT-20 breast carcinoma (Alamar Blue). In kind it is cell-based. The conditions noted are these: Homo sapiens, BT-20, 72 h, 3 days, Alamar Blue Assay. As for the experimental part: as §1, §2
A further experiment has as its target T2, p56^lck (Homo sapiens, UniProt P06239).
T2 construct: purchased Upstate Biotechnology Inc
As to the kind of experiment: kinase assay, p56lck. To be noted: poly [Glu,Tyr](4:1) substrate. In kind it is biochemical. As for the experimental part: as §3

For another experiment, the system named is A-1 cells. As to the kind of experiment: cell growth inhibition, A-1 acute lymphocytic leukemia. In kind it is cell-based. The conditions noted are these: Homo sapiens, 72 h; 3 days, Trypan Blue viable cell count. As for the experimental part:
as §1

The subject of experiment [1] is human cancer cells (HL-60, A-1, MG-63, BT-20, HT-29). The experiment can be described thus: inhibition of growth of human cancer cell lines, overall comparison. It is filed as cell-based. The conditions noted are these: 9TA, 18TA compared with e.g. 9TO, 18TO. As for the experimental part:
as §1, §2

In another experiment the target is p55^fyn. As to the kind of experiment: kinase assay, p55fyn. In kind it is biochemical. The conditions noted are these: poly [Glu,Tyr](4:1) substrate. As for the experimental part: as §3
For the next experiment, the target named is T3, p56^lyn (Homo sapiens, UniProt P07948).
T3 construct: purchased Upstate Biotechnology Inc
T3 sequence (P07948 whole entry, species assumed): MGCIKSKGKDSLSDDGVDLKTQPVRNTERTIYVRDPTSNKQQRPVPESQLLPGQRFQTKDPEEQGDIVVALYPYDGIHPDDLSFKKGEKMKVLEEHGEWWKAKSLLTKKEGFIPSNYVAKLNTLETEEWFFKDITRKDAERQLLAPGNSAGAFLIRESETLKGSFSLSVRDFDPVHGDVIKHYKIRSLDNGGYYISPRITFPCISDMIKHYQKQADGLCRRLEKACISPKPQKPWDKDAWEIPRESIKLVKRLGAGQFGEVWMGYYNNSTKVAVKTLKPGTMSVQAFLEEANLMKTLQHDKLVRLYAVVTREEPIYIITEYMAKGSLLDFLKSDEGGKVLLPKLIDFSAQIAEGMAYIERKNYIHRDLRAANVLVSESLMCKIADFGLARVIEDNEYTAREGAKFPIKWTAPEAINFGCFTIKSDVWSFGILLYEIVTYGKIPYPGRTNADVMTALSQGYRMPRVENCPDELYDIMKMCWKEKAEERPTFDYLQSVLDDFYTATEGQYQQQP
As to the kind of experiment: kinase assay, p56lyn. It is filed as biochemical. The conditions noted are these: poly [Glu,Tyr](4:1) substrate. The method, then: as §3

The test system of another experiment is HT-29 cells. As to the kind of experiment: cell growth inhibition, HT-29 colon adenocarcinoma. In kind it is cell-based. To be noted: Homo sapiens, HT-29, 72 h; 3 days, Trypan Blue viable cell count. The method, then:
as §1, §2

For a further experiment, the system named is MG-63. As to the kind of experiment: cell growth inhibition, MG-63 osteosarcoma. To be noted: Homo sapiens, MG-63, 72 h; 3 days, Trypan Blue viable cell count. In kind it is cell-based. The method, then: as §1, §2
Another experiment has as its system Human fibroblasts cells. As to the kind of experiment: cell growth inhibition, human fibroblasts. It is filed as cell-based. The method, then:
as §1

T2 sequence (P06239 whole entry, species assumed): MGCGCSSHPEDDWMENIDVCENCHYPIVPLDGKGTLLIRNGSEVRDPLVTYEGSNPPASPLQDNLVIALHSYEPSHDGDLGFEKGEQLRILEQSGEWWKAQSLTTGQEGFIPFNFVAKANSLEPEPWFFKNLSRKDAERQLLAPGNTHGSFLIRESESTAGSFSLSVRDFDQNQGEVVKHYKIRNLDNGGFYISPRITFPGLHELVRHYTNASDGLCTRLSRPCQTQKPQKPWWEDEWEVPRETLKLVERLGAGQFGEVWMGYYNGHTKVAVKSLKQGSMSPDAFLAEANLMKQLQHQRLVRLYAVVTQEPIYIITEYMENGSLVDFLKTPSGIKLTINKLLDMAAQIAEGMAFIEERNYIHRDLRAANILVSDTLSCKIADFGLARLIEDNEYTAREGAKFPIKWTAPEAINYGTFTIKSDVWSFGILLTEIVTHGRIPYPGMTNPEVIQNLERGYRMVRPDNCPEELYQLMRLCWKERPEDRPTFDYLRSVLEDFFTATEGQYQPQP

Consider `COc1ccc2oc(=N)c(C(=O)Nc3ccc(O)cc3)cc2c1` [Compound 16T], for which the IC50 in the experiment with HL-60 cells is 5 µg/mL (≈ 16.1 µM); in the experiment with BT-20 it was more than 20 µg/mL. Also, the “fold less active than 7T” value at p60^c-src (p60^c-src, versus 7T) came to 4 fold. At p60^c-src, the “IC50, p60^c-src” value turned out to be 12.5 µg/mL (≈ 40.3 µM). Also, the “IC50, p56^lck” value against p56^lck was found to be 7.5 µg/mL (≈ 24.2 µM).
Turning to `N=c1oc2c(O)c(O)ccc2cc1C(=O)Nc1ccccc1` [Compound 18AN], the values for the IC50 in the experiment with HL-60 cells and with A-1 cells were more than 20 µg/mL and 17 µg/mL (≈ 57.4 µM), respectively. Further, the “inhibition of cancer cell growth (in words)” value in [1] is “less active”. The “inhibition of p60^c-src kinase (in words)” value against p60^c-src was “inactive”. In addition, the “IC50, p55^fyn” value on p55^fyn is more than 20 µg/mL.
For the compound `N=c1oc2c(O)cccc2cc1C(=O)Nc1ccc(O)cc1` [Compound 9T], the “IC50, p56^lyn” value against p56^lyn worked out at 20 µg/mL (≈ 67.5 µM). In addition, the IC50 in the experiment with HL-60 cells is 2.5 µg/mL (≈ 8.44 µM); in the experiment with HT-29 cells, 4 µg/mL (≈ 13.5 µM); in the experiment with BT-20, 7 µg/mL (≈ 23.6 µM); with MG-63, 1.25 µg/mL (≈ 4.22 µM). In addition, at p55^fyn, the “IC50, p55^fyn” value was more than 20 µg/mL. On p56^lck, the “IC50, p56^lck” value amounted to 0.62 µg/mL (≈ 2.09 µM).
Consider `N=c1oc2ccccc2cc1C(=O)Nc1ccc(O)cc1` [Compound 25T, 3-(N-4-hydroxyphenyl)carbamoyl-2-iminochromene], for which the IC50 in the experiment on HL-60 cells was more than 10 µg/mL; in the experiment with BT-20, 10 µg/mL (≈ 35.7 µM). The “inhibition of cancer cell growth (in words)” value in experiment [1] is “less active”. At p60^c-src, the “inhibition of p60^c-src kinase (in words)” value is “poorly inhibits; also recorded: inactive”.
Consider `N=c1oc2cc(O)ccc2cc1C(=O)Nc1cccc(O)c1` [Compound 8TA], for which the IC50 at p56^lyn was more than 33.8 µM; in the experiment with HL-60 cells it was 3.3 µg/mL (≈ 11.1 µM). Moreover, the “IC50, p60^c-src” value against p60^c-src worked out at 9 µg/mL (≈ 30.4 µM).
In the experiment on HL-60 cells, `N=c1oc2cc(O)ccc2cc1C(=O)Nc1ccccc1O` [Compound 8TO] returned an IC50 of 8 µg/mL (≈ 27 µM). Besides, the “IC50, p60^c-src” value on p60^c-src was 0.6 µg/mL (≈ 2.03 µM).
Consider `N=c1oc2ccccc2cc1C(=O)Nc1cccc(O)c1` [Compound 25TA], for which, at p60^c-src, the “IC50, p60^c-src” value is 10 µg/mL (≈ 35.7 µM).
Regarding `N=c1oc2c(O)cccc2cc1C(=O)Nc1ccccc1O` [Compound 9TO], the IC50 in the experiment with HL-60 cells turned out to be 1.5 µg/mL (≈ 5.06 µM); in the experiment on HT-29 cells, 4 µg/mL (≈ 13.5 µM); with A-1 cells it was 1.9 µg/mL (≈ 6.41 µM). The “inhibition of p60^c-src kinase (in words)” value against p60^c-src is “relatively weak activity”. Also, the “IC50, p55^fyn” value against p55^fyn was more than 20 µg/mL. Besides, the “IC50, p56^lck” value on p56^lck was found to be 1.2 µg/mL (≈ 4.05 µM).
Take `N=c1oc2c(O)c(O)ccc2cc1C(=O)Nc1ccc(O)cc1` [Compound 18T]: the IC50 with HL-60 cells turned out to be 3.5 µg/mL (≈ 11.2 µM); with HT-29 cells, 20 µg/mL (≈ 64 µM); in the experiment with A-1 cells it was 8 µg/mL (≈ 25.6 µM); in the experiment with BT-20, 7.2 µg/mL (≈ 23.1 µM). Also, the “IC50, p60^c-src” value against p60^c-src worked out at 3.6 µg/mL (≈ 11.5 µM). In addition, the “IC50, p55^fyn” value on p55^fyn is more than 20 µg/mL. For the same compound, the “IC50, p56^lck” value against p56^lck is 5 µg/mL (≈ 16 µM).
`N=c1oc2cc(O)cc(O)c2cc1C(=O)Nc1ccccc1O` [Compound 19TO]: the IC50 in the experiment with HL-60 cells was 5 µg/mL (≈ 16 µM); in the experiment with HT-29 cells, 0.625 µg/mL (≈ 2 µM); in the experiment on A-1 cells it was 2.5 µg/mL (≈ 8.01 µM); in the experiment with BT-20, more than 20 µg/mL; with MG-63, 2.5 µg/mL (≈ 8.01 µM); in the experiment on Human fibroblasts cells (Homo sapiens, Fibroblast, 72 h, 3 days, Trypan Blue viable cell count) it was more than 20 µg/mL. In addition, on p60^c-src, the “IC50, p60^c-src” value was 2.1 µg/mL (≈ 6.72 µM). Further, the “inhibition of growth of human fibroblast cells (in words)” value with Human fibroblasts cells is listed as “not effective”.
As for `N=c1oc2c(O)c(O)ccc2cc1C(=O)Nc1ccccc1O` [Compound 18TO], the IC50 in the experiment on HL-60 cells stood at 2 µg/mL (≈ 6.4 µM); with HT-29 cells, 15 µg/mL (≈ 48 µM); in the experiment with A-1 cells, 2 µg/mL (≈ 6.4 µM). In addition, the “inhibition of p60^c-src kinase (in words)” value at p60^c-src is “relatively weak activity”. Besides, the “IC50, p60^c-src” value at p60^c-src was found to be 12 µg/mL (≈ 38.4 µM). In addition, at p55^fyn, the “IC50, p55^fyn” value is more than 20 µg/mL. Besides, the “IC50, p56^lck” value against p56^lck was 20 µg/mL (≈ 64 µM).

These data come from patent publication US5648378A, “2-iminochromene derivatives as inhibitors of protein tyrosine kinase” (Research Corporation Technologies, Inc., priority 1995, dated 1997).
